The target of one experiment is T1, HDAC-1 (Homo sapiens, UniProt Q13547).
T1 construct: made in house
Put plainly: Deacetylase fluorescence assay (HDAC-1). It counts as biochemical. The settings on record: read-out: HDAC-1 IC50. On the procedure: Conventional methods are used to express deacetylase enzymes and purify them from lysed cells. The following example describes an exemplary procedure, however equivalent procedures are within the scope of the invention.
The cell line used is a derivative of 293 cells overexpressing a fusion of the gene encoding each deacetylase protein with a nucleotide sequence encoding the Flag marker.
Cells are grown in Optimem, 2% Fetal Calf Serum, Pen/Strep. For enzyme preparation, Lysis buffer (IPLS) is 50 mM Tris-HCl, pH 7.5, 120 mM NaCl, 0.5 mM EDTA and 0.5% Nonidet P-40, to which is added one tablet of Protease inhibitors (Roche 11836170001) per 10 ml buffer. Other buffers are IPHS, which is IPLS containing 1 M NaCl; TBS (Sigma #T5912) dilute 10× stock to 1× with dH2O; HD buffer: 10 mM Tris pH 8.0 (1M Stock) 10 mM NaCl (5M Stock), 10% glycerol, and for dialysis: 400 μM PMSF is added (for 2 L: use 8 ml 100 mM Stock). Protease inhibitors (Complete mini, Boehringer Mannheim), 1 tablet/10 mL are added to all buffers but not used in buffers for enzyme assays.
Cells are harvested without using trypsin, and most cells are obtained easily in PBS, with gentle striking or agitation of flasks if necessary. More adherent cells are scraped in PBS. Cells are grown in 500 cm^2 trays, from which about half of the media is aspirated (50 ml total), then cells are scraped in the rest of the media and transferred to a centrifuge tube. Trays are washed with 25 ml cold PBS, scraped again to collect additional cells, and centrifuged at 1500 rpm at 4° C. for 5 min. Cells are washed at least 3 times in PBS to remove growth media, pelleting cells after each wash by centrifugation at 1500 rpm for 5 minutes. After washing, PBS is removed and the resulting cell pellet frozen at −80° C. for storage prior to purification.
For purification, cells are resuspended in lysis buffer, 12 ml of IPLS for cells collected from 10 500 cm trays. Cells are lysed at 4° C. for 3 hrs with rocking, and debris is removed by centrifugation for 20 min at 17,000 rpm in 30 ml centrifuge tubes. If supernatant is not clear afterward, centrifugation of the supernatant is repeated. Protein concentration of the whole cell lysate is determined (generally in the range of about 2-5 mg/ml).
For immunoprecipitation per mg of protein, 15 μL of anti-Flag M2-Agarose Affinity beads (Sigma #A2220) is used. Beads are prepared by washing 3 times with 10× bead volume of PBS and 1 time with IPLS, with centrifugation of the washes at 1500 rpm for 5 min. Whole cell lysate is incubated with the Ab-beads overnight at 4° C. Then beads are centrifuged and washed in 5× volume of the following buffers: three times in IPLS (30 sec at 4° C., spin at 1500 RPM for 5 min); three times in IPHS; and three times in TBS buffer. After each centrifugation, the supernatant is aspirated, leaving the pellet as dry as possible but avoiding sucking up any of the beads.
To elute the enzyme, beads are resuspended in 5× bead volume of TBS with protease inhibitor (Roche 11836170001) 1 tablet/10 mL. Enzyme is eluted with 400 μg/mL Flag peptide (Sigma #F-3290) for 3 hrs at 4° C. on rotator. Then beads are centrifuged, and the supernatant is transferred to a new tube to which is added 1/10 volume of glycerol. The supernatant is transferred to a dialysis cassette (Pierce #66410) using a 3 cc syringe and 18 G needle, and is dialyze sup in 2 L HD buffer for 2 hrs at 4° C. (1 L/hour). The resulting purified deacetylase is divided into aliquots (300 μL/tube), is snap frozen in dry ice bath, and is stored at −80° C.
For assay of deacetylase an assay based on Deacetylase Fluorescent Activity Assay/Drug Discovery Kit (BioMol # AK500) is used, however any equivalent deacetylase assay is within the scope of the invention.
The Fluorescent Assay Buffer (FAB) contains: 25 mM Tris-HCl, pH 8.0, 137 mM NaCl, 2.7 mM KCl and 1 mM MgCl2. […]

Experiment [1] relates to p21 promoter (p21-luc) in H1299 cells. Put plainly: p21 promoter luciferase assay using stably transfected p21-luc in H1299 cells. Particulars: Homo sapiens, NCI-H1299. It counts as cell-based. How it is done:
The cell lines used are derived from H1299 (p21-luc). The growth media used is RPMI 1640, 10% FBS, 1% Pen/Strep and the selection media added is 500 μg/mL Geneticin (Gibco). The buffer used is 5× cell culture lysis buffer (Promega #E1531), stored at −20 C and the Luciferase assay reagent (Promega #E1483) is stored at −70° C. The results of the assay are analyzed using Wallac Software.
To assay Luciferase, the cell culture medium is removed after one day of growth and the flasks are washed once with PBS. The cells are trypsinized in 20 mL of media and the trypsin is neutralized. The cells are counted (0.5-1 mL) on a Vi-Cell XR cell viability analyzer.
Cells are then diluted to a concentration of approximately 5000 cells/200 μL, and 190 μL samples are aliquoted into each well of a Costar white 96-well TC treated white bottom plate with lid (Costar #3917). Plates are then incubated overnight at 37 C.
After a further day, a sample of the compound is added to the wells for assay.
After a further day, the cells are lysed and the luciferase activity of the lysed cells is measured. Each well is washed twice with PBS and 20 μL/well of 1× cell culture lysis buffer (dilute 5× to 1× in distilled water) is added to each well. The microtiter plates are then shaken on a microtiter plate shaker for 20 minutes at room temperate at a speed setting of 5-6. After removal from the shaker, 100 μL of Luciferase Reagent is added to each well. Each microtiter plate is then read on Wallac Envision instrument.

Results on 22 compounds are retold here after patent publication US20100022514A1, “Heterocycle Compounds and Methods of Use Thereof” (NORVARTIS AG, priority 2006, published 2010).

Some results are limits rather than exact numbers.

T1 sequence (Q13547 whole entry): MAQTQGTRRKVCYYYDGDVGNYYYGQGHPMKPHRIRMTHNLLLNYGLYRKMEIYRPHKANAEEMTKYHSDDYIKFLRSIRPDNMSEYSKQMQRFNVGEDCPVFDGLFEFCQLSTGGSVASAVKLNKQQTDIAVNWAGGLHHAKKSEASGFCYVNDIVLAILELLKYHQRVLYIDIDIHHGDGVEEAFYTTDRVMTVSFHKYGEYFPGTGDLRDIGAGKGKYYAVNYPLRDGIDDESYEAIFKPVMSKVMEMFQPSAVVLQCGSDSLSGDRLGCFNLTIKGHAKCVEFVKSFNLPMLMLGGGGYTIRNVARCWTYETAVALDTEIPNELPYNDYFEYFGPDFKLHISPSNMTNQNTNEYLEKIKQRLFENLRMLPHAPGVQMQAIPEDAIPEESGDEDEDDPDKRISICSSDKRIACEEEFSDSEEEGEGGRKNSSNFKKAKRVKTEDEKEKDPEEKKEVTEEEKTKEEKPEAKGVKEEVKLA

Turning to `O=C(/C=C/c1ccc2c(c1)CN(Cc1ccccc1)C2)NO` [Example 1, (E)-3-(2-Benzyl-2,3-dihydro-1H-isoindol-5-yl)-N-hydroxy-acrylamide], at HDAC-1, the IC50 was in the range of 0.1 to 1 µM. This compound also yielded an AC50 in experiment [1] of over 1 µM.

As to `CC(C)(C)OC(=O)N1Cc2ccc(/C=C/C(=O)NO)cc2C1` [Example 2, 5-((E)-2-Hydroxycarbamoyl-vinyl)-1,3-dihydro-isoindole-2-carboxylic acid tert-butyl ester], on HDAC-1, the IC50 was in the range of 0.1 to 1 µM. The compound also registered a half-maximal activity concentration (AC50) in experiment [1] of over 1 µM.

For the compound `CC(C)(C)C(=O)N1Cc2ccc(/C=C/C(=O)NO)cc2C1` [Example 3, (E)-3-[2-(2,2-Dimethyl-propionyl)-2,3-dihydro-1H-isoindol-5-yl]-N-hydroxy-acrylamide], at HDAC-1, the IC50 was 0.1 to 1 µM. The AC50 in experiment [1] is over 1 µM.

Consider `CS(=O)(=O)N1Cc2ccc(/C=C/C(=O)NO)cc2C1` [Example 4, (E)-N-Hydroxy-3-(2-methanesulfonyl-2,3-dihydro-1H-isoindol-5-yl)-acryl amide], for which, on HDAC-1, the IC50 was in the range of 0.1 to 1 µM. Also, the AC50 in experiment [1] was over 1 µM.

With `O=C(/C=C/c1ccc2c(c1)CN(S(=O)(=O)c1ccccc1)C2)NO` [Example 5, (E)-3-(2-Benzenesulfonyl-2,3-dihydro-1H-isoindol-5-yl)-N-hydroxy-acrylamide], on HDAC-1, the IC50 was 0.1 to 1 µM. This compound also displayed an AC50 in experiment [1] of over 1 µM.

As to `O=C(/C=C/c1ccc2c(c1)CN(S(=O)(=O)c1ccncc1)C2)NO` [Example 6, (E)-N-Hydroxy-3-[2-(pyridine-4-sulfonyl)-2,3-dihydro-1H-isoindol-5-yl]-acrylamide], the IC50 on HDAC-1 was in the range of 0.1 to 1 µM. Besides, the AC50 in experiment [1] is over 1 µM.

For `O=C(/C=C/c1ccc2c(c1)CN(S(=O)(=O)c1cccnc1)C2)NO` [Example 7, (E)-N-Hydroxy-3-[2-(pyridine-3-sulfonyl)-2,3-dihydro-1H-isoindol-5-yl]-acrylamide], the concentration for half-maximal inhibition (IC50) on HDAC-1 was 0.1 to 1 µM. In experiment [1], the AC50 is over 1 µM.

For the compound `Cc1ccc(S(=O)(=O)N2Cc3ccc(/C=C/C(=O)NO)cc3C2)cc1` [Example 8, (E)-N-Hydroxy-3-[2-(toluene-4-sulfonyl)-2,3-dihydro-1H-isoindol-5-yl]-acrylamide], the IC50 at HDAC-1 is under 0.1 µM. The compound also showed an AC50 in experiment [1] of over 1 µM.

Take `COc1ccc(S(=O)(=O)N2Cc3ccc(/C=C/C(=O)NO)cc3C2)cc1` [Example 9, (E)-N-Hydroxy-3-[2-(4-methoxy-benzenesulfonyl)-2,3-dihydro-1H-isoindol-5-yl]-acrylamide]: at HDAC-1, the IC50 was under 0.1 µM. This compound also yielded a concentration at half-maximal activity (AC50) in experiment [1] of over 1 µM.

`O=C(/C=C/c1ccc2c(c1)CN(S(=O)(=O)c1ccc(C(F)(F)F)cc1)C2)NO` [Example 10, (E)-N-Hydroxy-3-[2-(4-trifluoromethyl-benzenesulfonyl)-2,3-dihydro-1H-isoindol-5-yl]-acrylamide]: at HDAC-1, the IC50 was 0.1 to 1 µM. The same compound came in with an AC50 in experiment [1] of over 1 µM.

As for `Cc1cccc(S(=O)(=O)N2Cc3ccc(/C=C/C(=O)NO)cc3C2)c1` [Example 11, (E)-N-Hydroxy-3-[2-(toluene-3-sulfonyl)-2,3-dihydro-1H-isoindol-5-yl]-acrylamide], the IC50 on HDAC-1 is under 0.1 µM. In experiment [1], this compound came in with an AC50 of over 1 µM.

As for `O=C(/C=C/c1ccc2c(c1)CN(S(=O)(=O)c1cccc(C(F)(F)F)c1)C2)NO` [Example 12, (E)-N-Hydroxy-3-[2-(3-trifluoromethyl-benzenesulfonyl)-2,3-dihydro-1H-isoindol-5-yl]-acrylamide], the half-maximal inhibitory concentration (IC50) at HDAC-1 was in the range of 0.1 to 1 µM. In experiment [1], this compound came in with an AC50 of over 1 µM.

As for `COc1cccc(S(=O)(=O)N2Cc3ccc(/C=C/C(=O)NO)cc3C2)c1` [Example 13, (E)-N-Hydroxy-3-[2-(3-methoxy-benzenesulfonyl)-2,3-dihydro-1H-isoindol-5-yl]-acrylamide], at HDAC-1, the IC50 was under 0.1 µM. Also, in experiment [1], the AC50 was over 1 µM.

On to `Cc1ccccc1S(=O)(=O)N1Cc2ccc(/C=C/C(=O)NO)cc2C1` [Example 14, (E)-N-Hydroxy-3-[2-(toluene-2-sulfonyl)-2,3-dihydro-1H-isoindol-5-yl]-acrylamide], for which, at HDAC-1, the IC50 was 0.1 to 1 µM. The same compound gave an AC50 in experiment [1] of over 1 µM.

As to `Cn1cnc(S(=O)(=O)N2Cc3ccc(/C=C/C(=O)NO)cc3C2)c1` [Example 15, (E)-N-Hydroxy-3-[2-(1-methyl-1H-imidazole-4-sulfonyl)-2,3-dihydro-1H-isoindol-5-yl]-acrylamide], the IC50 at HDAC-1 lay within 0.1 to 1 µM. In addition, the AC50 in experiment [1] was over 1 µM.

Turning to `O=C(/C=C/c1ccc2c(c1)CN(C(=O)c1cccc(C(F)(F)F)c1)C2)NO` [Example 16, (E)-N-Hydroxy-3-[2-(3-trifluoromethyl-benzoyl)-2,3-dihydro-1H-isoindol-5-yl]-acrylamide], the IC50 on HDAC-1 fell in the range of 0.1 to 1 µM. Also, in experiment [1], the AC50 was over 1 µM.

On to `O=C(/C=C/c1ccc2c(c1)CN(C(=O)c1cccnc1)C2)NO` [Example 17, (E)-N-Hydroxy-3-[2-(pyridine-3-carbonyl)-2,3-dihydro-1H-isoindol-5-yl]-acrylamide], for which, at HDAC-1, the IC50 was in the range of 0.1 to 1 µM. The compound further returned an AC50 in experiment [1] of over 1 µM.

Regarding `O=C(/C=C/c1ccc2c(c1)CN(C(=O)c1cccs1)C2)NO` [Example 18, (E)-N-Hydroxy-3-[2-(thiophene-2-carbonyl)-2,3-dihydro-1H-isoindol-5-yl]-acrylamide], the IC50 on HDAC-1 is under 0.1 µM. The same compound yielded an AC50 in experiment [1] of over 1 µM.

Consider `CCCCS(=O)(=O)N1Cc2ccc(/C=C/C(=O)NO)cc2C1` [Example 19, (E)-3-[2-(Butane-1-sulfonyl)-2,3-dihydro-1H-isoindol-5-yl]-N-hydroxy-acrylamide], for which the IC50 at HDAC-1 was in the range of 0.1 to 1 µM. This compound also showed an AC50 in experiment [1] of over 1 µM.

As to `O=C(/C=C/c1ccc2c(c1)CN(S(=O)(=O)Cc1ccccc1)C2)NO` [Example 20, (E)-N-Hydroxy-3-(2-phenylmethanesulfonyl-2,3-dihydro-1H-isoindol-5-yl)-acrylamide], the IC50 on HDAC-1 was 0.1 to 1 µM. In addition, the AC50 in experiment [1] was over 1 µM.

In the case of `O=C(/C=C/c1ccc2c(c1)CN(C(=O)C1CCCCC1)C2)NO` [Example 21, (E)-3-(2-Cyclohexanecarbonyl-2,3-dihydro-1H-isoindol-5-yl)-N-hydroxy-acrylamide], at HDAC-1, the IC50 lay within 0.1 to 1 µM. The AC50 in experiment [1] was over 1 µM.

In the case of `O=C(/C=C/c1ccc2c(c1)CN(C(=O)C1CCCC1)C2)NO` [Example 22, (E)-3-(2-Cyclopentanecarbonyl-2,3-dihydro-1H-isoindol-5-yl)-N-hydroxy-acrylamide], the concentration for half-maximal inhibition (IC50) on HDAC-1 lay in the range of 0.1 to 1 µM. Also, the AC50 in experiment [1] was over 1 µM.

As usually defined, the IC50 is the concentration needed to halve the response being measured. For orientation: AC50 means the concentration at which the activity in the assay is half-maximal. Low values mean greater potency, high ones weaker potency.
